According to ChEMBL document CHEMBL4000232, “Structure-based optimization of 1H-imidazole-2-carboxamides as Axl kinase inhibitors utilizing a Mer mutant surrogate” (Bioorg Med Chem Lett, 2017):

Columns and labels:
[1] = Extraction ratio in human hepatic microsomes; format: ADME, Microsome; conditions: liver microsomes, read-out: ERH
[2] = Extraction ratio in rat hepatic microsomes; format: ADME, Microsome; conditions: liver microsomes, read-out: ERH
[3] = molecular target: T1, Tyrosine-protein kinase receptor UFO (Homo sapiens, UniProt P30530); test: Inhibition of Axl (unknown origin)
T1 sequence (P30530 whole entry): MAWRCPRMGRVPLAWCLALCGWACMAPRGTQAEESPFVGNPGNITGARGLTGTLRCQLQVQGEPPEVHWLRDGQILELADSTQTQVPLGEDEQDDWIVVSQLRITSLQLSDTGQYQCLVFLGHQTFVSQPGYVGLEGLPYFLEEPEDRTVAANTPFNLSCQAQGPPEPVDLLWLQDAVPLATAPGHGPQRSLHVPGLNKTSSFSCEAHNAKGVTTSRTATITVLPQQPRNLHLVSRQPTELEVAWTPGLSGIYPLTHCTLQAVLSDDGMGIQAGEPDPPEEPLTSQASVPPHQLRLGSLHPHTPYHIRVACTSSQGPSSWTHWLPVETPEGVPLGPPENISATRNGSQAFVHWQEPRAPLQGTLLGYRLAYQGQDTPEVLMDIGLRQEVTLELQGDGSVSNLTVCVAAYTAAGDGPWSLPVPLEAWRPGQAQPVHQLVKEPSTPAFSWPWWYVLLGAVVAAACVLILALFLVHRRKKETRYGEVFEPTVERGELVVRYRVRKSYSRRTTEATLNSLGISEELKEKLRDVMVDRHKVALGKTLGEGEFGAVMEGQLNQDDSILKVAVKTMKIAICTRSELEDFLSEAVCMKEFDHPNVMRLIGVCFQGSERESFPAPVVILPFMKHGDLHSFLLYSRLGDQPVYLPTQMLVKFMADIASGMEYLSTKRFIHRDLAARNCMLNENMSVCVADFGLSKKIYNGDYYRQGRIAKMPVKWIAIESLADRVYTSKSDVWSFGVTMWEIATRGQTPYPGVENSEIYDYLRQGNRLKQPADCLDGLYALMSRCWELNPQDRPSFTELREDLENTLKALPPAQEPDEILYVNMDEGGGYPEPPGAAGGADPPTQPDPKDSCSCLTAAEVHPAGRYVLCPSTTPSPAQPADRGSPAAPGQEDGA

[4] = Oral bioavailability in rat; format: ADME, organism-based; conditions: in vivo
[5] = Permeability of the compound by PAMPA; format: physicochemical; conditions: read-out: permeability
[6] = molecular target: hERG (KCNH2) (Homo sapiens, UniProt Q12809); test: Inhibition of human ERG at 10 uM relative to control
Sequence of hERG (KCNH2) (Q12809 whole entry): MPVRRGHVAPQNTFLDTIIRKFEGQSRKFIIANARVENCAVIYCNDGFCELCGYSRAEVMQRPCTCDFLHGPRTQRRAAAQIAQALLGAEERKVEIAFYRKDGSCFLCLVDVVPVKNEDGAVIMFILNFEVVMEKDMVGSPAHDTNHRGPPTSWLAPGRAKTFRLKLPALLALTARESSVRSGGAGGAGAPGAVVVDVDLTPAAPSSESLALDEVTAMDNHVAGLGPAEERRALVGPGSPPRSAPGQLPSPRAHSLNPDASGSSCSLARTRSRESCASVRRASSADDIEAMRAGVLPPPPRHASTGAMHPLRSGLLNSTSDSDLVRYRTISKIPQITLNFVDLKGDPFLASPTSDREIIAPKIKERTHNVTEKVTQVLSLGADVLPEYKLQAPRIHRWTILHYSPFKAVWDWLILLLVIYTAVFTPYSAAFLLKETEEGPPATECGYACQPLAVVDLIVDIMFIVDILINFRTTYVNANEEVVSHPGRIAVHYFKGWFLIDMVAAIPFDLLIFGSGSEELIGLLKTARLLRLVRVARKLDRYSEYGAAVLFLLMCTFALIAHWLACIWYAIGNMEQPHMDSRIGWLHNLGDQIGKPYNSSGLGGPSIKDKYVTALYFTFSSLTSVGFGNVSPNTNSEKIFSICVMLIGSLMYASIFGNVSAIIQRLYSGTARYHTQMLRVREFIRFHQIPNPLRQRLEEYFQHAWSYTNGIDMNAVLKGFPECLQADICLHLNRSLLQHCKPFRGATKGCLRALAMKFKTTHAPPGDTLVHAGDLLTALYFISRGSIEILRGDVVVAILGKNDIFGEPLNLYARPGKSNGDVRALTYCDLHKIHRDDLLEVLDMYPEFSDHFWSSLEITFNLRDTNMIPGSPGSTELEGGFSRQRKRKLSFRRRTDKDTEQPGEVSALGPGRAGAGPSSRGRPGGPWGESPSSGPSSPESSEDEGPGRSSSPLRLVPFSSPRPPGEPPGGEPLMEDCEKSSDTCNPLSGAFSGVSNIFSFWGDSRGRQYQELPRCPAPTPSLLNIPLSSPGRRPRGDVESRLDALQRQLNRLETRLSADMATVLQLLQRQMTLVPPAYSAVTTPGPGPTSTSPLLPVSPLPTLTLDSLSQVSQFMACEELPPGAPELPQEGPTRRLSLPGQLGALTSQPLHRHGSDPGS

[7] = Clearance in rat; format: ADME; conditions: in vivo
[8] = Protein binding in human plasma; format: ADME, cell-free; conditions: read-out: PPB (converted)
[9] = Inhibition of CYP450 (unknown origin); format: ADME; conditions: human
[10] = test system: Liver; test: Intrinsic clearance in rat liver microsomes; format: ADME, microsome
[11] = Protein binding in rat plasma; format: ADME, cell-free; conditions: read-out: PPB (converted)
[12] = test system: HepG2; test: Cytotoxicity against human HepG2 cells; format: functional

SMILES	hepatic extraction ratio [1]	hepatic extraction ratio [2]	IC50 [3]	further results
CS(=O)(=O)N1CCC[C@H](c2csc(-c3ccccc3NC(=O)c3nc4ccccc4[nH]3)n2)C1	0.86	0.87	> 1000 nM	
CS(=O)(=O)N1CCC[C@H](c2csc(-c3ccccc3NC(=O)c3cnc[nH]3)n2)C1	0.9	0.71	> 1000 nM	
CS(=O)(=O)N1CCC[C@H](c2csc(-c3ccccc3NC(=O)c3ncc[nH]3)n2)C1				bioavailability [4]: 13%; Papp [5]: 15.7 ×10⁻⁶ cm/s; inhibition at 10 µM [6]: 94%; clearance [7]: 20 mL/min/kg
CCS(=O)(=O)N1CCC[C@H](c2csc(-c3ccccc3NC(=O)c3ncc[nH]3)n2)C1	0.95	0.86	> 630 nM	
CS(=O)(=O)N1CCO[C@H](c2csc(-c3cc(N4CCOCC4)ccc3NC(=O)c3ncc[nH]3)n2)C1				fraction unbound [8]: 0.21; bioavailability [4]: 38%; Papp [5]: 18.4 ×10⁻⁶ cm/s; inhibition (INH) [9]: > 16%; CLH [10]: 35 mL/min/kg; fraction unbound [11]: 0.1; Activity [12]: 14 µM; inhibition at 10 µM [6]: 19%; clearance [7]: 54 mL/min/kg
COC(=O)N1CCC[C@H](c2csc(-c3ccccc3NC(=O)c3ncc[nH]3)n2)C1	0.75	0.69	> 1000 nM	
CC(=O)N1CCC[C@H](c2csc(-c3ccccc3NC(=O)c3ncc[nH]3)n2)C1	0.78	0.67	> 1000 nM	
